Results from patent publication US9273095B2, “Antibiotic peptide and preparation method therefor and application therefor” (priority 2011, dated 2016).
Marks after values point to notes of the source that are not given here. Non-standard residues stand in square brackets, D forms with d. Residues, ends and D or L forms follow the SMILES beside them.

What was measured:
Staphylococcus aureus = experiment: Therapeutic test of injection on mice with systemic infection, survival time; assay type: in vivo, ICR mice; conditions: 30 mg/kg twice a day for three days, n = 10
Text: (§1) There are 30 male and 30 female ICR mice with the weight ranging from 18 g to 22 g. According to their weight, they are randomly divided into 6 groups of 10 mice: blank control group, negative control group, Levofloxacin positive control group, PL-13 (SEQ ID NO: 1) high dose group, PL-13 (SEQ ID NO: 1) middle dose group and PL-13 (SEQ ID NO: 1) low dose group. Each group is raised in the same plastic case. With trinitrophenal marking method, all the mice are raised with ordinary animal feeds in the ordinary animal houses and they can drink water freely. Alternating of light and dark is conducted every 12 hours.
(§2) 2. Infected Strains: Pseudomonas aeruginosa and Staphylococcus aureus
(§3) PL-18 (SEQ ID NO: 1) freeze-dried powder injections (supplied by Jiangsu ProteLight Pharmaceutical & Biotechnology Co., LTD.), Levofloxacin Hydrochloride and Sodium Chloride Injection (supplied by Yangtze River Pharmaceutical Group) and 0.9% Sodium Chloride Injection (supplied by Chifeng Rongjitang Pharmaceutical CO., Ltd.)
(§4) (1) The preparation of bacterial suspension is the same as above.
(§5) (2) The Pseudomonas aeruginosa suspension cultured overnight is diluted to 1×10^9CFU/ml. The Staphylococcus aureus suspension cultured overnight is diluted to 1×10^8CFU/ml. They are all applied in reserve.
(§6) (3) Except the blank control group, every other mouse is injected with 0.2 ml Pseudomonas aeruginosa suspension with the concentration of 1×10^9CFU/ml or 0.2 ml Staphylococcus aureus suspension with the concentration of 1×10^8CFU/ml intraperitoneally to make model.
(§7) (4) Administration: Inject the drugs according to weight right after the model is ready. All the groups excepting the blank and the negative infected group are injected with different dosage of different injections through caudal vena twice a day successively for three days, and they are observed for fourteen days.
(§8) (5) Observe death of the animals and record their survival time.

Pseudomonas aeruginosa = experiment: as above; assay type: in vivo, ICR mice; conditions: 30 mg/kg twice a day for three days, n = 10
Text: as §1, §2, §3, §4, §5, §6, §7, §8

[1] = system: red cell suspension from healthy volunteers; experiment: Hemolytic activity test; assay type: cell-based, human; conditions: for Hemolytic activity, absorbancy (OD value) at 570 nm: 4 hours at 37° C., OD higher than 0.1 is hemolytic, n = 3; for hemolytic toxicity (in words): summary of Table 9
Method: (1) Samples are serial diluted with sterile PBS to 1000, 500, 250, 125, 64, 32, 16, 8, 4 μg/ml in turn and spread in 96-well plates, 100 μl per orifice.
(2) We use distilled water as positive control, sterile PBS as negative control and blank orifice with 200 μl PBS solution added. Each concentration above is made in triplicate.
(3) We take 3 ml whole blood from healthy volunteers and washed it with sterile PBS three times to prepare fresh 2% concentration red cell suspension. Then we added 100 μl red cell suspension into each orifice and made them cultured for 4 hours at 37° C. in the incubator. After centrifuged by plate-swashing centrifuge, the supernatant liquid is collected and measured absorbancy (OD value) at a wavelength of 570 nm. Then we compared the hemolytic efficiency of these concentrations.
(4) According to the documents standard, OD value which is higher than 0.1 is hemolytic concentration.

[2] = system: Staphylococcus epidermidis ATCC12228; experiment: Anti-infection test of externally-applied agent on skin, viable count; assay type: in vivo, ICR mice; conditions: for viable count, Liver (1:5) / viable count, Skin (1:10) / viable count, Spleen (1:5) / viable count, Whole blood: 0.1 ml morning and evening for 7 days, n = 10
Text: (§9) 1. Experimental Strains: Staphylococcus epidermidis ATCC12228 and Staphylococcus aureus ATCC25923
(§10) There are 50 male ICR mice with the weight of 20±2 g. According to their weight, they are randomly divided into 5 groups of 10 mice: negative infected control group, Bactroban positive control group, 1% concentration cream group, 1‰ concentration cream group and blank ground substance group. Each group is raised in the same plastic case. Their blank parts, heads, necks, backs and tails are marked with picric acid marking method. All the mice are raised with ordinary animal feeds in the ordinary animal houses and they could drink water freely. Alternating of light and dark is conducted every 12 hours.
(§11) There are preparation of 1% concentration, 1‰ concentration, and blank ground substance preparation (supplied by Jiangsu ProteLight Pharmaceutical & Biotechnology Co., LTD.) and Bactroban (supplied by SK&F).
(§12) (1) The bacteria strains which preserved in liquid nitrogen are inoculated to MHB plate and cultured overnight at 37° C.
(§13) (2) The solid strains are inoculated to MHB liquid medium and overnight cultured shakily at the speed of 220 rpm at 37° C.
(§14) (3) The bacterial suspension cultured overnight is diluted to 5×10^6CFU/ml and applied in reserve.
(§15) (4) Skin modeling: Mice's back are sheared and depilated by depilatory paste. After the hair off, they are abraded with 0.3 mm-long sandpaper to bleeding and injected 0.1 ml bacterial suspension with the concentration of 5×10^6CFU/ml subcutaneously.
(§16) (5) Administration: All the groups except the negative infected control group are respectively applied different cream with the dosage of 0.1 ml once respectively in the morning and evening for 7 days.
(§17) (6) After 7 days, the visceral organs, blood and infected skin of mice are collected by aseptic method to count viable bacteria.

[3] = system: Staphylococcus aureus ATCC25923; experiment: as above; assay type: in vivo, ICR mice; conditions: for viable count, Liver (1:5) / viable count, Skin (1:10) / viable count, Spleen (1:5) / viable count, Whole blood: 0.1 ml morning and evening for 7 days, n = 10
Text: as §9, §10, §11, §12, §13, §14, §15, §16, §17

C[C@H]1COc2c(N3CCN(C)CC3)c(F)cc3c(=O)c(C(=O)O)cn1c23 [Levofloxacin, levofloxacin, reference compound]
Mean survival Time (Staphylococcus aureus; observed fourteen days): 5.4** day
Mortality of mice in different days after infection (Staphylococcus aureus; day 1): 5
Mortality of mice in different days after infection (Staphylococcus aureus; day 2): 2
Mortality of mice in different days after infection (Staphylococcus aureus; day 3): 0
Mortality of mice in different days after infection (Staphylococcus aureus; day 4): 0
Mortality of mice in different days after infection (Staphylococcus aureus; day 5): 0
Mean survival Time (Pseudomonas aeruginosa; observed fourteen days): 6.4** day
Mortality of mice in different days after infection (Pseudomonas aeruginosa; day 1): 4
Mortality of mice in different days after infection (Pseudomonas aeruginosa; day 2): 2
Mortality of mice in different days after infection (Pseudomonas aeruginosa; day 3): 0
Mortality of mice in different days after infection (Pseudomonas aeruginosa; day 4): 0
Mortality of mice in different days after infection (Pseudomonas aeruginosa; day 5): 0

CC[C@@H](C)[C@@H](NC(=O)[C@@H](CCCCN)NC(=O)[C@@H](CO)NC(=O)[C@@H](Cc1ccccc1)NC(=O)[C@@H](CC(C)C)NC(=O)[C@@H](CCCCN)NC(=O)[C@@H](CCC(=O)O)NC(=O)[C@@H](CC(C)C)NC(=O)[C@@H](CCCNC(=N)N)NC(=O)[C@@H](CCCCN)NC(=O)[C@@H](Cc1ccccc1)NC(C)=O)C(=O)N[C@H](Cc1c[nH]c2ccccc12)C(=O)N[C@H](CC(N)=O)C(=O)N[C@H](Cc1c[nH]c2ccccc12)C(=O)N[C@H](CCCCN)C(N)=O [PL-17] (Ac-[dF][dK][dR][dL][dE][dK][dL][dF][dS][dK][dI][dW][dN][dW][dK]-NH2)
Hemolytic activity, absorbancy (OD value) at 570 nm ([1]; peptide 7.8125 μg/ml): 0.033
Hemolytic activity, absorbancy (OD value) at 570 nm ([1]; peptide 15.625 μg/ml): 0.056
Hemolytic activity, absorbancy (OD value) at 570 nm ([1]; peptide 31.25 μg/ml): 0.063
Hemolytic activity, absorbancy (OD value) at 570 nm ([1]; peptide 62.5 μg/ml): 0.065
Hemolytic activity, absorbancy (OD value) at 570 nm ([1]; peptide 125 μg/ml): 0.078
Hemolytic activity, absorbancy (OD value) at 570 nm ([1]; peptide 250 μg/ml): 0.082
Hemolytic activity, absorbancy (OD value) at 570 nm ([1]; peptide 500 μg/ml): 0.152
Hemolytic activity, absorbancy (OD value) at 570 nm ([1]; peptide 1000 μg/ml): 0.339
hemolytic toxicity (in words) [1]: little hemolytic toxicity

Ac-FKKLKKLFSKLWNWK-NH2 [PL-13]
Hemolytic activity, absorbancy (OD value) at 570 nm ([1]; peptide 7.8125 μg/ml): 0.043
Hemolytic activity, absorbancy (OD value) at 570 nm ([1]; peptide 15.625 μg/ml): 0.059
Hemolytic activity, absorbancy (OD value) at 570 nm ([1]; peptide 31.25 μg/ml): 0.065
Hemolytic activity, absorbancy (OD value) at 570 nm ([1]; peptide 62.5 μg/ml): 0.090
Hemolytic activity, absorbancy (OD value) at 570 nm ([1]; peptide 125 μg/ml): 0.117
Hemolytic activity, absorbancy (OD value) at 570 nm ([1]; peptide 250 μg/ml): 0.184
Hemolytic activity, absorbancy (OD value) at 570 nm ([1]; peptide 500 μg/ml): 0.220
Hemolytic activity, absorbancy (OD value) at 570 nm ([1]; peptide 1000 μg/ml): 0.310
hemolytic toxicity (in words) [1]: little hemolytic toxicity
viable count, Liver (1:5) ([2]; 1% externally-applied agent): 12 CFU/plate
viable count, Skin (1:10) ([2]; 1% externally-applied agent): 369 CFU/plate
viable count, Spleen (1:5) ([2]; 1% externally-applied agent): 5 CFU/plate
viable count, Whole blood ([2]; 1% externally-applied agent): 10 CFU/plate
viable count, Liver (1:5) ([2]; 1‰ externally-applied agent): 10 CFU/plate
viable count, Skin (1:10) ([2]; 1‰ externally-applied agent): 425 CFU/plate
viable count, Spleen (1:5) ([2]; 1‰ externally-applied agent): 17 CFU/plate
viable count, Whole blood ([2]; 1‰ externally-applied agent): 18 CFU/plate
inhibition of skin infection (in words) ([2]; externally-applied agent, twice daily for 7 days, Staphylococcus epidermidis): effective
viable count, Liver (1:5) ([3]; 1% externally-applied agent): 10 CFU/plate
viable count, Skin (1:10) ([3]; 1% externally-applied agent): 852 CFU/plate
viable count, Spleen (1:5) ([3]; 1% externally-applied agent): 6 CFU/plate
viable count, Whole blood ([3]; 1% externally-applied agent): 8 CFU/plate
viable count, Liver (1:5) ([3]; 1‰ externally-applied agent): 12 CFU/plate
viable count, Skin (1:10) ([3]; 1‰ externally-applied agent): 1005 CFU/plate
viable count, Spleen (1:5) ([3]; 1‰ externally-applied agent): 14 CFU/plate
viable count, Whole blood ([3]; 1‰ externally-applied agent): 11 CFU/plate
inhibition of skin infection (in words) ([3]; externally-applied agent, twice daily for 7 days, Staphylococcus aureus): effective
